Patent US8653095B2, “Small molecules with antimalarial activity” (Radix Pharmaceuticals, Inc., priority 2011, dated 2014)
Where two headings read alike, the source gives them in different places.

Legend:
rodent P. berghei = details: for Primary therapeutic index / Secondary therapeutic index: Sprague-Dawley, rat, in vivo, po; for MCureD (minimum curative dose): rodent P. berghei, administered orally
Description: Antimalarial potency was measured by determination of the MCD (minimum clearance dose), a commonly used efficacy measurement. The primary therapeutic indices, which were obtained by using the MCDs as the effective parameters, were calculated. A secondary therapeutic indices measure of antimalarial potency was determined by use of the dose for the MCureD (minimum curative dose).

[1] = test system: Liver stage of P. yoelii yoelii; assay: In vitro liver-stage antimalarial efficacy evaluation; assay type: cell-based; details: Plasmodium yoelii
Description: In Vitro Liver-Stage Antimalarial Efficacy Evaluation. Any new desirable antimalarial drug should be broad spectrum: it should be active against both the blood stage and the liver stage of the parasite. New compounds were assessed on the Plasmodium yoelii liver stage in vitro. The liver stage of P. yoelii is a parasite of rodent extensively used as an experimental model for studying the initial phase of the malaria infection.

P. falciparum TM4 = assay: In vitro blood stage antimalarial efficacy, [3H]hypoxanthine uptake, strain TM4; assay type: cell-based; details: Plasmodium falciparum; read-out: IC50
Description: (§1) In Vitro Blood Stage Antimalarial Efficacy Evaluation. New compounds were tested against a panel of strains of P. falciparum.
(§2) Test compounds were initially dissolved in DMSO and diluted 400 fold in RPMI 1640 culture medium supplemented with 25 mM Hepes, 32 mM NaHCO3 and 10% Albumax I (Gibco, NY). These solutions were subsequently serially diluted two-fold with a Beckman Biomek® 1000 Robot (Fullerton, Calif.) over 11 different concentrations. The parasites were exposed to serial dilutions of each compound for 48 hrs and incubated at 37° C. with 5% O2, 5% CO2 and 90% N2 prior to the addition of [^3H]hypoxanthine. After a further incubation of 18 hrs, parasite DNA was harvested from each microtiter well using Packard Filtermate™ 196 Harvester (Meriden, Conn.) onto glass filters. Uptake of [^3H]hypoxanthine was measured with a Packard TopCount Liquid Scintillation Counter (Packard Instrument Co.).

P. berghei NK-65 = assay: In vivo efficacy in Swiss mice infected with P. berghei; details: Plasmodium berghei
P. falciparum TM6 = assay: In vitro blood stage antimalarial efficacy, [3H]hypoxanthine uptake, strain TM6; assay type: cell-based; details: Plasmodium falciparum; read-out: IC50
Description: as §1, §2

P. falciparum K1 = assay: In vitro blood stage antimalarial efficacy, [3H]hypoxanthine uptake, strain K1; assay type: cell-based; details: Plasmodium falciparum, read-out: IC50
Description: as §1, §2

P. falciparum PH3 = assay: In vitro blood stage antimalarial efficacy, [3H]hypoxanthine uptake, strain PH3; assay type: cell-based; details: Plasmodium falciparum; read-out: IC50
Description: as §1, §2

[2] = test system: multi-drug resistant P. falciparum Thailand T24 strain; assay: In vivo efficacy in immunocompromised BXN mice infected with P. falciparum T24; details: Plasmodium falciparum, 96 h, oral once daily for 4 days
Source text: Antimalarial efficacy data was obtained by evaluating new compounds in two rodent models: (I) Swiss mice infected with rodent malaria strain P. berghei; (II) Immunocompromised BXN mice infected with either the sensitive P. falciparum African NF54 strain or the multi-drug resistant P. falciparum Thailand T24 strain.

P. falciparum 3D7 = assay: In vitro blood stage antimalarial efficacy, [3H]hypoxanthine uptake, strain 3D7; assay type: cell-based; details: Plasmodium falciparum, read-out: IC50
Description: as §1, §2

P. falciparum V1S = assay: microbe, parasite or virus in culture; assay type: cell-based; details: Plasmodium falciparum
Description: as §1, §2

[3] = 96 h, P. berghei NK-65, Swiss mice, oral once daily for 4 days, read-out: ED50
[4] = read-out: ED50 (the dose leading to 50% parasite growth inhibition compared to the blank control)

| Structure (SMILES) | Primary therapeutic index (rodent P. berghei) | Secondary therapeutic index (rodent P. berghei) | MCureD (minimum curative dose) (rodent P. berghei) [mg/kg] | IC50 [1] [nM] | IC50 (P. falciparum TM4) [nM] | ED50 (P. berghei NK-65; [3]) [mg/kg] | ED50 (P. berghei NK-65; [4]) [mg/kg] | IC50 (P. falciparum TM6) [nM] | IC50 (P. falciparum K1) [nM] | IC50 (P. falciparum PH3) [nM] | ED50 [2] [mg/kg] | IC50 (P. falciparum 3D7) [nM] | IC50 (P. falciparum V1S) [nM] |
| --- | --- | --- | --- | --- | --- | --- | --- | --- | --- | --- | --- | --- | --- |
| CC[C@@H](N)[C@H](O)[C@H](O)[C@H](COC)[C@@H]1CC[C@@]23CC24c2nc5ccc(OC)cc5cc2C(=O)N[C@H]4CN13 (some centres unmarked) [Formula B] | 237 | 53 | 14.2 | 5.8 | 0.23 ± 0.04 | 0.13 | < 1 | 0.18 ± 0.03 | 0.22 ± 0.05 | 0.17 ± 0.04 | 0.27 | 0.19 ± 0.04 | 0.26 ± 0.05 |
| COC[C@@H]([C@@H](O)[C@@H](O)[C@H](N)Cc1ccccc1)[C@@H]1CC[C@@]23CC24c2nc5ccc(OC)cc5cc2C(=O)N[C@H]4CN13 (some centres unmarked) [Formula C] | 290 | 72 | 9.82 | 7.1 | 0.31 ± 0.07 | 0.11 | < 1 | 0.09 ± 0.02 | 0.25 ± 0.04 | 0.19 ± 0.04 | 0.18 | 0.22 ± 0.05 | 0.12 ± 0.03 |
